Data reported in ChEMBL document CHEMBL1201862, “PubChem BioAssay data set” (2004).
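Method: 48-hour compound exposure of cells in 96-well plates, five concentrations, linear interpolation of endpoints. GI50 is the concentration that inhibits growth by half.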 Active and inactive are the calls of the source. Cut-off read from the data, not from the text of the source: active = GI50 up to about 1.1 µM and inactive = higher.

Columns and labels:
Test in all cases: inhibition of tumour cell growth, NCI panel, 48 h
K562 = tested on: K562
MDA-MB-435 = tested on: MDA-MB-435
SN12C = tested on: SN12C
NCI-H522 = tested on: NCI-H522
HL-60 = tested on: HL-60
U-251 = tested on: U-251
NCI/ADR-RES = tested on: NCI/ADR-RES
CCRF-CEM = tested on: CCRF-CEM
SR = tested on: SR
HCT-15 = tested on: HCT-15
OVCAR-3 = tested on: OVCAR-3
SK-OV-3 = tested on: SK-OV-3
SK-MEL-28 = tested on: SK-MEL-28
IGROV-1 = tested on: IGROV-1
COLO 205 = tested on: COLO 205
HOP-62 = tested on: HOP-62
Hs-578T = tested on: Hs-578T
MDA-MB-231 = tested on: MDA-MB-231
RPMI-8226 = tested on: RPMI-8226
MDA-N = tested on: MDA-N

| SMILES | GI50 (K562) | GI50 (MDA-MB-435) | GI50 (SN12C) | GI50 (NCI-H522) | GI50 (HL-60) | GI50 (U-251) | GI50 (NCI/ADR-RES) | GI50 (CCRF-CEM) | GI50 (SR) | GI50 (HCT-15) | GI50 (OVCAR-3) | GI50 (SK-OV-3) | GI50 (SK-MEL-28) | GI50 (IGROV-1) | GI50 (COLO 205) | GI50 (HOP-62) | GI50 (Hs-578T) | GI50 (MDA-MB-231) | GI50 (RPMI-8226) | GI50 (MDA-N) |
| --- | --- | --- | --- | --- | --- | --- | --- | --- | --- | --- | --- | --- | --- | --- | --- | --- | --- | --- | --- | --- |
| COc1ccc(-c2nc(-c3cnccn3)n(C3OC(CO)C(O)C3O)n2)cc1 (centres undefined) | > 10 µM (inactive) | > 10 µM (inactive) | > 10 µM (inactive) | > 10 µM (inactive) | > 10 µM (inactive) | > 10 µM (inactive) | > 10 µM (inactive) | > 10 µM (inactive) | > 10 µM (inactive) | > 10 µM | > 10 µM (inactive) | > 10 µM (inactive) | – | – | – | – | – | – | – | – |
| CCCCCCC(C)CC(CCCCCC)NCCOC(=O)c1ccc([N+](=O)[O-])cc1 (centres undefined) | < 0.01 µM (active) | – | 12.4 µM (inactive) | 13.8 µM (inactive) | – | 13.4 µM (inactive) | 21.3 µM (inactive) | 2.69 µM (inactive) | – | 14.3 µM | – | 16.3 µM (inactive) | 12.6 µM (inactive) | 14.1 µM (inactive) | 2.17 µM (inactive) | 16.3 µM (inactive) | 18.7 µM (inactive) | 10.4 µM (inactive) | – | – |
| Cc1nnc2n1N=C(c1cc(F)c(Cl)cc1Cl)/C(=C/c1ccc(-c3ccc([N+](=O)[O-])cc3)o1)S2 | 31.8 µM (inactive) | 50.4 µM (inactive) | 35.3 µM (inactive) | 32.7 µM (inactive) | 46.3 µM (inactive) | 71.8 µM (inactive) | > 100 µM (inactive) | 37.2 µM (inactive) | 34.2 µM (inactive) | 53.5 µM | > 100 µM (inactive) | > 100 µM (inactive) | > 100 µM (inactive) | > 100 µM (inactive) | 65.9 µM (inactive) | > 100 µM (inactive) | > 100 µM (inactive) | – | 34 µM (inactive) | – |
| COc1cc(O)c2c(=O)c(O)c(-c3ccc(O)c(O)c3)oc2c1 [RHAMNETIN] | 9.53 µM (inactive) | 13 µM (inactive) | – | 3.15 µM (inactive) | 2.78 µM (inactive) | 4.86 µM (inactive) | 8.55 µM (inactive) | 3.61 µM (inactive) | 13.3 µM (inactive) | 8.04 µM | 3.9 µM (inactive) | 20 µM (inactive) | 6.76 µM (inactive) | 40.3 µM (inactive) | 13.5 µM (inactive) | 14.6 µM (inactive) | – | 10.7 µM (inactive) | 6.73 µM (inactive) | 19.8 µM (inactive) |
| COC(=O)CCC(=O)Nc1ccc(Cl)cc1C | 20.8 µM (inactive) | – | > 23.2 µM (inactive) | 3.41 µM (inactive) | 0.399 µM (active) | > 22.4 µM (inactive) | – | 0.123 µM (active) | 5.47 µM (inactive) | > 100 µM | 43.9 µM (inactive) | > 100 µM (inactive) | > 100 µM (inactive) | > 64 µM (inactive) | > 64.9 µM (inactive) | 39.4 µM (inactive) | – | – | 0.973 µM (active) | – |
| Cc1ccc(C(=O)c2[nH]c(NCc3ccccc3)c(C(=S)Nc3ccccc3)c2N)cc1 | 2.13 µM (inactive) | 3.28 µM (inactive) | 14.5 µM (inactive) | 2.21 µM (inactive) | 16.3 µM (inactive) | 4.04 µM (inactive) | 2.58 µM (inactive) | 5.16 µM (inactive) | – | 2.14 µM | 11.8 µM (inactive) | 2.77 µM (inactive) | 3.64 µM (inactive) | 7.35 µM (inactive) | 3.87 µM (inactive) | 15.5 µM (inactive) | – | 6.55 µM (inactive) | 2.15 µM (inactive) | 3.51 µM (inactive) |
| CCCCCCCCCCCCn1c(=O)cc(NCCCC)c2cc3c(NCCCC)cc(=O)n(CCCCCCCCCCCC)c3nc21 | > 100 µM (inactive) | > 100 µM (inactive) | > 100 µM (inactive) | > 100 µM (inactive) | – | > 100 µM (inactive) | > 100 µM (inactive) | – | – | > 100 µM | > 100 µM (inactive) | > 100 µM (inactive) | > 100 µM (inactive) | – | > 100 µM (inactive) | 53.8 µM (inactive) | – | > 100 µM (inactive) | > 100 µM (inactive) | > 100 µM (inactive) |
| COC(=O)c1cc(S(=O)(=O)NC2=NNC(C)CN2)c(S)cc1Cl (centres undefined) | 47.1 µM (inactive) | 40.3 µM (inactive) | > 100 µM (inactive) | 19.5 µM (inactive) | > 100 µM (inactive) | 37.4 µM (inactive) | 39.8 µM (inactive) | 84.1 µM (inactive) | 37.5 µM (inactive) | 37.8 µM | 38.3 µM (inactive) | > 100 µM (inactive) | 36.7 µM (inactive) | 29.6 µM (inactive) | 52.7 µM (inactive) | > 100 µM (inactive) | – | > 100 µM (inactive) | 31.2 µM (inactive) | 35.3 µM (inactive) |
